Measurements as given in US8124626B2, “Methods of treating inflammations and infections with pyridinium salts” (Mycosol, Inc., priority 2007, dated 2012).

How the values were obtained:
[1] = test system: Epidermophyton floccsum; settings: Mueller-Hinton agar, 24 hours at 35° C.
[2] = test system: Candida tropicalis; settings: Mueller-Hinton agar, 24 hours at 35° C.
[3] = test system: Pasturella multocida; settings: Mueller-Hinton agar, 24 hours at 35° C.
[4] = test system: Fusarium solani; settings: Mueller-Hinton agar, 24 hours at 35° C.
[5] = as compared to the iodide salt
[6] = test system: E. coli; settings: Mueller-Hinton agar, 24 hours at 35° C.
[7] = test system: Streptococcus faecalis; settings: Mueller-Hinton agar, 24 hours at 35° C.
[8] = test system: Vibrio cholerae; settings: Mueller-Hinton agar, 24 hours at 35° C.
[9] = test system: Cryptococcus neoformans; settings: Mueller-Hinton agar, 24 hours at 35° C.
[10] = test system: Microsporidium gypseum; settings: Mueller-Hinton agar, 24 hours at 35° C.
[11] = test system: Streptococcus pyogenes; settings: Mueller-Hinton agar, 24 hours at 35° C.
[12] = test system: Saccharomyces cervisciae; settings: Mueller-Hinton agar, 24 hours at 35° C.
[13] = test system: Rhizopus arrihizus; settings: Mueller-Hinton agar, 24 hours at 35° C.
[14] = test system: Trichophyton equinium; settings: Mueller-Hinton agar, 24 hours at 35° C.
[15] = test system: Microsporidium canis; settings: Mueller-Hinton agar, 24 hours at 35° C.
[16] = test system: Candida albicans; settings: Mueller-Hinton agar, 24 hours at 35° C.
[17] = test system: Staphylococcus aureus; settings: Mueller-Hinton agar, 24 hours at 35° C.
[18] = test system: Aspergillus flavus; settings: Mueller-Hinton agar, 24 hours at 35° C.
[19] = test system: Trichophyton rubrum; settings: Mueller-Hinton agar, 24 hours at 35° C.
[20] = test system: Pseudomonas aerugenosa; settings: Mueller-Hinton agar, 24 hours at 35° C.
[21] = test system: Bordella bronchiseptica; settings: Mueller-Hinton agar, 24 hours at 35° C.
[22] = test system: Trichophyton mentagrophyt; settings: Mueller-Hinton agar, 24 hours at 35° C.
[23] = test system: Aspergillus fumigatus; settings: Mueller-Hinton agar, 24 hours at 35° C.
[24] = test system: Streptococcus algalactia; settings: Mueller-Hinton agar, 24 hours at 35° C.
[25] = test system: Pyrenophora teres; experiment: Plant relevant mold panel, microtiter growth inhibition; format: cell-based; settings: Plant relevance: Barley; 18° C. for 7 days, optical density 405 nm
[26] = test system: Rhizoctonia solani; experiment: as above; format: cell-based; settings: Plant relevance: Rice Sheath; 18° C. for 7 days, optical density 405 nm
[27] = test system: Botrytis cinerea; experiment: as above; format: cell-based; settings: Plant relevance: Vegetable; 18° C. for 7 days, optical density 405 nm
[28] = test system: Septonia tritici; experiment: as above; format: cell-based; settings: Plant relevance: Wheat Leaf; 18° C. for 7 days, optical density 405 nm
[29] = test system: Phytophthora infestans; settings: Plant relevance: Tomato; 18° C. for 7 days, optical density 405 nm
[30] = test system: roundworms, threadworms, and whipworms; settings: reported; U.S. Pat. No. 3,075,975 and 3,085,935; cited from earlier work
[31] = test system: Pyricularia oryzae; settings: Plant relevance: Rice; 18° C. for 7 days, optical density 405 nm
[32] = test system: Colletotrichum lagenarium; experiment: Plant relevant mold panel, microtiter growth inhibition; format: cell-based; settings: Plant relevance: Mellons; 18° C. for 7 days, optical density 405 nm

## 1-Ethyl-(E,E)-2,6-bis[2-[4-(pyrrolidinyl)phenyl]ethenyl]pyridinium Chloride [formula I]
[1]
  MIC: 1.6 µg/mL
[2]
  MIC: <0.4 µg/mL
[3]
  MIC: 3.0 µg/mL
[4]
  MIC: <0.4 µg/mL
[5]
  stability: increased stability
[6]
  MIC: >100 µg/mL
[7]
  MIC: 1.0 µg/mL
[8]
  MIC: 10.0 µg/mL
[9]
  MIC: <0.4 µg/mL
[10]
  MIC: 1.6 µg/mL
[11]
  MIC: 1.0 µg/mL
[12]
  MIC: <0.4 µg/mL
[13]
  MIC: 6.25 µg/mL
[14]
  MIC: 1.6 µg/mL
[15]
  MIC: 1.6 µg/mL
[16]
  MIC: <0.006 µg/mL
[17]
  MIC: 0.3 µg/mL
[18]
  MIC: 6.25 µg/mL
[19]
  MIC: 1.6 µg/mL
[20]
  MIC: >100 µg/mL
[21]
  MIC: 1.0 µg/mL
[22]
  MIC: 1.6 µg/mL
[23]
  MIC: <0.006 µg/mL
[24]
  MIC: 1.0 µg/mL

## CC[n+]1c(/C=C/c2ccc(N3CCCC3)cc2)cccc1/C=C/c1ccc(N2CCCC2)cc1.[I-] [Stilbazium iodide]
[25]
  IC90: 31 ppm a.i.
[26]
  IC90: 2 ppm a.i.
[27]
  IC90: 0.5 ppm a.i.
[28]
  IC90: 2 ppm a.i.
[29]
  IC90: 2 ppm a.i.
[30]
  anthelmintic effectiveness: effective against roundworms, threadworms, and whipworms
[31]
  IC90: 8 ppm a.i.
[32]
  IC90: 31 ppm a.i.
